According to ChEMBL document CHEMBL1201862, “PubChem BioAssay data set” (2004):
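Protocol summary: plate cells (96-well), add compound at 5 concentrations, incubate 48 h, interpolate endpoints linearly. Here, GI50 denotes the concentration required for 50% inhibition of growth.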 Calls of active or inactive are those of the source. Rule as the data show it: active = GI50 up to about 1.1 µM and inactive = higher.

How the values were obtained:
Assay in all cases: NCI anticancer screen, dose series, 48 h
[1] = tested on: A498
[2] = tested on: BT-549
[3] = tested on: CAKI-1
[4] = tested on: COLO 205
[5] = tested on: EKVX
[6] = tested on: HCC 2998
[7] = tested on: HCT-15
[8] = tested on: HOP-62
[9] = tested on: HOP-92
[10] = tested on: K562
[11] = tested on: MDA-MB-435
[12] = tested on: MDA-N
[13] = tested on: Malme-3M
[14] = tested on: NCI-H460
[15] = tested on: OVCAR-4
[16] = tested on: SF-539
[17] = tested on: SK-MEL-2
[18] = tested on: SNB-75
[19] = tested on: U-251

## CN(C)CCNC(=O)c1cccc2nc3c(nc12)-c1ccccc1C3=O
[1]
  GI50: 14.4 µM (inactive)
[2]
  GI50: 14.3 µM (inactive)
[3]
  GI50: 13.6 µM (inactive)
[4]
  GI50: 17.6 µM (inactive)
[5]
  GI50: 22.8 µM (inactive)
[6]
  GI50: 15 µM (inactive)
[7]
  GI50: 10.3 µM
[8]
  GI50: 6.17 µM (inactive)
[9]
  GI50: 16.4 µM (inactive)
[10]
  GI50: 3.16 µM (inactive)
[11]
  GI50: 14.8 µM (inactive)
[12]
  GI50: 9.89 µM (inactive)
[13]
  GI50: 9.95 µM (inactive)
[14]
  GI50: 4.99 µM (inactive)
[15]
  GI50: 20.8 µM (inactive)
[16]
  GI50: 10.2 µM (inactive)
[17]
  GI50: 17 µM (inactive)
[18]
  GI50: 13.8 µM (inactive)
[19]
  GI50: 13.4 µM (inactive)

## CC(C)(C)OC(=O)CN1C(=O)CC1CC(=O)c1ccccc1 (configuration not stated)
[1]
  GI50: 27.4 µM (inactive)
[2]
  GI50: 18.2 µM (inactive)
[3]
  GI50: 22.4 µM (inactive)
[4]
  GI50: 26.6 µM (inactive)
[5]
  GI50: 17.2 µM (inactive)
[6]
  GI50: 23.5 µM (inactive)
[7]
  GI50: 18.2 µM
[8]
  GI50: 17 µM (inactive)
[9]
  GI50: 37.4 µM (inactive)
[10]
  GI50: 4.14 µM (inactive)
[11]
  GI50: 18.9 µM (inactive)
[12]
  GI50: 20.3 µM (inactive)
[13]
  GI50: 17.3 µM (inactive)
[14]
  GI50: 26.7 µM (inactive)
[15]
  GI50: 30.5 µM (inactive)
[16]
  GI50: 19.4 µM (inactive)
[17]
  GI50: 16.8 µM (inactive)
[19]
  GI50: 16 µM (inactive)

## Cc1cccc(NC(=O)/C=C/c2ccc([N+](=O)[O-])cc2)c1
[1]
  GI50: > 100 µM (inactive)
[2]
  GI50: > 34.5 µM (inactive)
[3]
  GI50: > 39.3 µM (inactive)
[4]
  GI50: > 41.1 µM (inactive)
[5]
  GI50: 23.2 µM (inactive)
[6]
  GI50: 16.6 µM (inactive)
[7]
  GI50: > 35.1 µM
[8]
  GI50: 16.7 µM (inactive)
[9]
  GI50: 15.8 µM (inactive)
[10]
  GI50: > 29.4 µM (inactive)
[11]
  GI50: > 36.6 µM (inactive)
[12]
  GI50: > 30.7 µM (inactive)
[13]
  GI50: 0.838 µM (active)
[14]
  GI50: > 43.5 µM (inactive)
[15]
  GI50: > 41.4 µM (inactive)
[16]
  GI50: > 29.8 µM (inactive)
[17]
  GI50: 20 µM (inactive)
[18]
  GI50: 30.1 µM (inactive)
[19]
  GI50: > 38 µM (inactive)

## COc1cc2c(cc1OC)-c1cc3ccccc3c(=O)n1CCC2
[1]
  GI50: 6.62 µM (inactive)
[2]
  GI50: 13.1 µM (inactive)
[3]
  GI50: 7.85 µM (inactive)
[4]
  GI50: 8.47 µM (inactive)
[5]
  GI50: 21.9 µM (inactive)
[6]
  GI50: 13.7 µM (inactive)
[7]
  GI50: 2.07 µM
[8]
  GI50: 12 µM (inactive)
[9]
  GI50: 15.4 µM (inactive)
[10]
  GI50: 3.21 µM (inactive)
[11]
  GI50: 5.69 µM (inactive)
[12]
  GI50: 3.56 µM (inactive)
[13]
  GI50: 20 µM (inactive)
[14]
  GI50: 1.76 µM (inactive)
[15]
  GI50: 24.6 µM (inactive)
[16]
  GI50: 2.94 µM (inactive)
[17]
  GI50: 29.3 µM (inactive)
[18]
  GI50: 19.1 µM (inactive)
[19]
  GI50: 6.49 µM (inactive)

## O=S1(=O)c2ccccc2NC(=S)N1c1ccccc1
[1]
  GI50: > 58.9 µM (inactive)
[2]
  GI50: 47.6 µM (inactive)
[3]
  GI50: > 72.8 µM (inactive)
[4]
  GI50: 77.8 µM (inactive)
[5]
  GI50: 32.4 µM (inactive)
[6]
  GI50: 53.5 µM (inactive)
[7]
  GI50: 75 µM
[8]
  GI50: 7.1 µM (inactive)
[9]
  GI50: 3.89 µM (inactive)
[10]
  GI50: 49.1 µM (inactive)
[11]
  GI50: 50.1 µM (inactive)
[12]
  GI50: 36 µM (inactive)
[13]
  GI50: 46.1 µM (inactive)
[14]
  GI50: > 79.1 µM (inactive)
[15]
  GI50: 53.3 µM (inactive)
[16]
  GI50: > 100 µM (inactive)
[17]
  GI50: 73.5 µM (inactive)
[18]
  GI50: 2.61 µM (inactive)
[19]
  GI50: > 72.3 µM (inactive)

## O=c1oc2ccccc2c(O)c1C1c2c(c3ccccc3oc2=O)Oc2c1c(=O)oc1ccccc21
[1]
  GI50: 49.5 µM (inactive)
[2]
  GI50: 27.5 µM (inactive)
[3]
  GI50: 30.3 µM (inactive)
[4]
  GI50: 42.3 µM (inactive)
[5]
  GI50: 45 µM (inactive)
[6]
  GI50: 18.7 µM (inactive)
[7]
  GI50: 27.9 µM
[8]
  GI50: 64.4 µM (inactive)
[9]
  GI50: 35.2 µM (inactive)
[10]
  GI50: 33.7 µM (inactive)
[11]
  GI50: 28.7 µM (inactive)
[12]
  GI50: 18.9 µM (inactive)
[13]
  GI50: > 100 µM (inactive)
[14]
  GI50: 17.1 µM (inactive)
[15]
  GI50: 32.9 µM (inactive)
[17]
  GI50: 51.6 µM (inactive)
[18]
  GI50: 57.1 µM (inactive)
[19]
  GI50: 38.1 µM (inactive)

## O=C1Nc2ccc(Br)cc2/C1=N/S(=O)(=O)O
[1]
  GI50: > 100 µM (inactive)
[2]
  GI50: 34.8 µM (inactive)
[3]
  GI50: 35.6 µM (inactive)
[4]
  GI50: 46.8 µM (inactive)
[5]
  GI50: 29.2 µM (inactive)
[6]
  GI50: 51.3 µM (inactive)
[7]
  GI50: 21.9 µM
[8]
  GI50: 60.5 µM (inactive)
[9]
  GI50: > 100 µM (inactive)
[10]
  GI50: 17.3 µM (inactive)
[11]
  GI50: 6.38 µM (inactive)
[12]
  GI50: 11.4 µM (inactive)
[13]
  GI50: 26.1 µM (inactive)
[14]
  GI50: 29 µM (inactive)
[15]
  GI50: 19 µM (inactive)
[17]
  GI50: 6.61 µM (inactive)
[18]
  GI50: 24.5 µM (inactive)
[19]
  GI50: 13.6 µM (inactive)

## COC(=O)[C@]12CC[C@H]3CN(C(=O)OCc4ccccc4)[C@H]([C@H]31)[C@H](C(=O)OCC[Si](C)(C)C)N2S(=O)(=O)c1ccc(C)cc1
[1]
  GI50: 16.7 µM (inactive)
[2]
  GI50: > 100 µM (inactive)
[3]
  GI50: > 100 µM (inactive)
[4]
  GI50: 17.5 µM (inactive)
[5]
  GI50: 89.9 µM (inactive)
[6]
  GI50: > 100 µM (inactive)
[7]
  GI50: > 100 µM
[8]
  GI50: > 100 µM (inactive)
[9]
  GI50: 3.13 µM (inactive)
[10]
  GI50: 15.3 µM (inactive)
[11]
  GI50: > 100 µM (inactive)
[12]
  GI50: 74 µM (inactive)
[13]
  GI50: 96.6 µM (inactive)
[14]
  GI50: > 100 µM (inactive)
[15]
  GI50: 11.4 µM (inactive)
[16]
  GI50: > 100 µM (inactive)
[17]
  GI50: 96.4 µM (inactive)
[19]
  GI50: > 100 µM (inactive)

## CC(C)(C)OC(=O)NC(Cc1ccc(OCc2ccccc2)cn1)C(=O)N1CCSCC1 (configuration not stated)
[1]
  GI50: 45.4 µM (inactive)
[2]
  GI50: 27.9 µM (inactive)
[3]
  GI50: 73.3 µM (inactive)
[4]
  GI50: 18.6 µM (inactive)
[5]
  GI50: 41.6 µM (inactive)
[6]
  GI50: 57.8 µM (inactive)
[7]
  GI50: 46.7 µM
[8]
  GI50: > 100 µM (inactive)
[9]
  GI50: 47.4 µM (inactive)
[10]
  GI50: 31.7 µM (inactive)
[11]
  GI50: 28.6 µM (inactive)
[12]
  GI50: 40.8 µM (inactive)
[13]
  GI50: 46.5 µM (inactive)
[14]
  GI50: 38 µM (inactive)
[16]
  GI50: 49 µM (inactive)
[17]
  GI50: 38.7 µM (inactive)
[18]
  GI50: 24 µM (inactive)
[19]
  GI50: 74.3 µM (inactive)

## CC(=O)Nc1c(C)cc(OCC(=O)O)cc1C
[1]
  GI50: > 100 µM (inactive)
[2]
  GI50: > 100 µM (inactive)
[3]
  GI50: > 100 µM (inactive)
[4]
  GI50: > 100 µM (inactive)
[5]
  GI50: > 100 µM (inactive)
[6]
  GI50: > 100 µM (inactive)
[7]
  GI50: > 100 µM
[8]
  GI50: > 100 µM (inactive)
[9]
  GI50: > 100 µM (inactive)
[10]
  GI50: > 100 µM (inactive)
[11]
  GI50: > 100 µM (inactive)
[12]
  GI50: > 100 µM (inactive)
[13]
  GI50: > 100 µM (inactive)
[14]
  GI50: > 100 µM (inactive)
[15]
  GI50: > 100 µM (inactive)
[17]
  GI50: > 100 µM (inactive)
[18]
  GI50: > 100 µM (inactive)
[19]
  GI50: > 100 µM (inactive)

## O=c1c2cc(-c3ccccc3)sc2nc2n1N=C(c1ccc(Cl)cc1)CS2
[1]
  GI50: > 100 µM (inactive)
[2]
  GI50: > 100 µM (inactive)
[3]
  GI50: > 100 µM (inactive)
[4]
  GI50: > 100 µM (inactive)
[5]
  GI50: > 100 µM (inactive)
[6]
  GI50: > 100 µM (inactive)
[7]
  GI50: > 100 µM
[8]
  GI50: > 100 µM (inactive)
[9]
  GI50: > 100 µM (inactive)
[10]
  GI50: > 100 µM (inactive)
[11]
  GI50: > 100 µM (inactive)
[12]
  GI50: > 100 µM (inactive)
[13]
  GI50: > 100 µM (inactive)
[14]
  GI50: > 100 µM (inactive)
[15]
  GI50: > 100 µM (inactive)
[16]
  GI50: > 100 µM (inactive)
[18]
  GI50: > 100 µM (inactive)
[19]
  GI50: > 100 µM (inactive)
